Laboratory results from patent US20080171704A1, “Composition and method for treating diabetes” (priority 2001, published 2008).
Where a SMILES comes first, the peptide text is derived from it.

Columns and labels:
[1] = tested on: beagle dogs; test: 34-day dog repeat-dose toxicology study; assay type: in vivo
Protocol: FIG. 8. Effects of daily injection of INGAP Peptide to dogs for 34 days on the area of cells in the pancreas that becomes positive for insulin by immunohistochemical staining. Data are mean ±SEM. The percentage of cross-sectional area stained for insulin was determined with an Olympus microscope (150×) and image analysis software (Image Pro Plus Version 4.0, Media Cybernetics).
A repeat-dose toxicology study was conducted in beagle dogs for 34 days with daily IM injection of INGAP Peptide at 0, 0.5, 1.5, and 10 mg/kg/day. Pancreatic tissue was obtained for quantitation of β-cell mass by immunohistochemistry from animals sacrificed on Day 34, at termination of treatment, and from recovery animals sacrificed 25 days after termination of treatment. Pancreatic β-cell mass was increased following INGAP Peptide administration (see FIG. 8).

[2] = Stability of bulk INGAP Peptide (lyophilized powder); assay type: physicochemical
Protocol: Stability is determined by comparing various parameters including, but not limited to, degree of purity, total percentage of impurities, percentage of individual impurities (as determined by HPLC or other suitable quantitative method), appearance, and water content of the sample. An HPLC method can be used to determine any increase in the levels of degradation products relative to the level of INGAP Peptide. INGAP Peptide samples (both solution and lyophilized powder) are stored at various temperatures, in the presence or absence of humidity, and in light or dark vials. Degradation during different storage conditions can lead to an increase in impurities and decrease in INGAP Peptide content. It is desirable that the sample preparation is more than 80% pure, preferably more than 90% pure, more preferably more than 95%, and most preferably more than 97% pure.
Purity of the INGAP Peptide is maintained under these conditions and degradation products are lower than the acceptable levels.

[3] = tested on: patients; test: Human clinical studies in type I or type II diabetes mellitus; assay type: in vivo; conditions: versus placebo
Protocol: Doses are often based on the results of efficacy and safety studies in animals. Two doses of INGAP Peptide, 7.5 mg (0.125 mg/kg, or 4.625 mg/m^2 for a 60 kg patient) and 120 mg ([…], or 74 mg/m^2 for a 60 kg patient) are exemplified in the treatment of type I or type II diabetes mellitus. The following parameters are evaluated to determine efficacy of INGAP Peptide treatment. • 1. A reduction of fasting glucose levels by >35 mg/dl while the total insulin dose is maintained. • 2. A reduction of insulin dose by 25% with fasting glucose levels maintained in the normal range as determined by the American Diabetes Association (ADA) criteria. • 3. An increase in fasting C-peptide >1 ng/ml is obtained. An increase in C-peptide of >2 ng/ml in response to Sustacal® (Boost®) is obtained.
Each patient is randomized to receive one single intramuscular injection of INGAP Peptide. After evaluating efficacy and safety data, patients could be given further INGAP Peptide injections as deemed appropriate by the physician.
Stimulated C-peptide tests are performed in the morning after an overnight fasting period of at least 10 hours. The tests are performed only if the fasting glucose is between 80 and 250 mg/dl. Patients can take their diabetes medications the evening before, but should not take them the morning of the test until the test is completed. Blood samples for the determination of C-peptide are drawn immediately before Boost® ingestion, and at 0.5, 2, and 4 hours post-ingestion. Boost® is administered through ingestion. Patients are considered insulin deficient if their fasting C-peptide is <1.0 ng/ml and their maximum stimulated C-peptide value is <2.0 ng/ml.

[4] = 31-day mouse repeat-dose toxicology study; assay type: in vivo, mice; conditions: mouse, in vivo; CD-1 mice, 31-day dosing; read-out: no adverse effect level (NOAEL)
Protocol: (§1) FIG. 7. Immunopositive tissue area in normal mouse following treatment with INGAP Peptide for 31 days. Data are mean ±SEM. The percentage of cross-sectional area stained for insulin was determined with an Olympus microscope (150×) and image analysis software (Image Pro Plus Version 4.0, Media Cybernetics).
(§2) A repeat-dose toxicology study was conducted in mice with 31 days of daily injection of INGAP Peptide at 0, 2, 20, and 100 mg/kg/day. In this study, four treatment groups of 10 males and 10 females each were allocated, as were two groups of recovery animals (5 males and 5 females). Blood was collected at termination and necropsies were performed for gross and microscopic observations. Clinical pathology and serum levels were evaluated in approximately half the animals in each group. Selected organs (brain, adrenal, heart, kidney, liver, lung, pancreas, and spleen) were weighed and relative organ weights were calculated. A section of the pancreas was removed and frozen in liquid nitrogen for evaluation for insulin content and sections of pancreas tissue were submitted for independent microscopic examination. Recovery animals were terminated 28 days after cessation of dosing. Various parameters for further study as well as potentially drug-related abnormal findings were evaluated to determine the reproducibility and potential clinical significance.

[5] = tested on: CD-1 mice; test: 31-day mouse repeat-dose toxicology study; assay type: in vivo
Protocol: as §1, §2

[6] = tested on: ARIP cells, a rat pancreatic duct cell line; test: ARIP cell BrdU proliferation bioassay; assay type: cell-based; conditions: FIG. 1
Protocol: To confirm that the synthetic molecule is bioactive, a bioassay may be used to confirm the activity. ARIP cells, a rat pancreatic duct cell line, obtained from ATCC (Manassas, Va.) are used in the assay. Cells are plated into a 96-well culture plate at 10,000 cells/well, and cultured for 24 hours in Dulbecco's […] Essential Medium (DMEM) containing 10% fetal bovine serum. After 24 hours, the medium is replaced with DMEM without serum. […] After 21 hours, the medium is supplemented with bromodeoxyuridine (BrdU) labeling solution from a BrdU cell proliferation ELISA kit (Roche Molecular Biochemicals) and cultured for a further 3 hours. At 24 hours the cells are dried at 60° C. for 60 minutes, fixed and denatured. They are exposed to BrdU antibody for 90 minutes and developed for 15 minutes, all according to kit instructions. BrdU labeling is quantitated on a Wallac Victor 1420 Multilabel Counter. Results are compared against a standard curve of cells grown on the same culture plate, seeded at densities from 100 to 20,000 cells per well.

[7] = tested on: normal hamsters; test: Islet formation in normal hamsters; assay type: in vivo, Syrian golden Hamsters; conditions: 5 mg/kg IP daily
Protocol: FIG. 2. Increase in pancreatic endocrine cell mass with INGAP Peptide. Normal Syrian golden Hamsters were treated with saline (control) or INGAP Peptide IP for either 10 days or 30 days. The number of islets/ml was determined with a computer-aided Morphometric system employing Image-Pro Plus software.
INGAP Peptide was studied for its effects on islet formation in normal hamsters. INGAP Peptide 5 mg/kg (25 mg/m^2) was given IP daily for 4 weeks and β-cell mass was assessed at 10 days and at 30 days. […] The islet neogenesis effect was manifested by production of more insulin and an increase in the number of islets in the pancreata. Newly formed β-cells appeared in the wall of, and budding from, pancreatic ducts. These insulin-positive cells resulted from ductal epithelial cell differentiation and islet cell growth, and their appearance was proportional to the dose and duration of treatment with INGAP Peptide. Over longer periods of treatment, these cells migrated away from the duct and formed islets in the parenchyma of the pancreas. After 10 consecutive days of INGAP Peptide administration, there was a 30% increase in islet number, and by 30 days there was a doubling of the number of islets in the tissues, consistent with the prior observations using ilotropin, INGAP, and cellophane wrapping in animal models.

[8] = tested on: C57BL/6J mice made diabetic with STZ; test: In vivo efficacy study in streptozotocin-diabetic mice
Protocol: FIG. 3. Time course of blood glucose following injection of INGAP Peptide […] twice daily or saline for 39 days to C57BL/6J mice rendered diabetic using a regimen of multiple injections of low-dose streptozotocin. Blood glucose levels were measured every three days.
C57BL/6J mice were made diabetic with STZ (35 mg/kg/day×5 days) and divided in INGAP Peptide-treated (250 ? g twice daily) and saline control groups of 4 animals each. […] The appearance of glucagon producing cells is noteworthy since glucagon plays a major role in the defense against hypoglycemia. This feature of the INGAP Peptide induced islet neogenesis could help to reverse the impaired counter regulatory control of hypoglycemia associated with the overzealous treatment of diabetes. Hypoglycemia was not observed in any of the INGAP Peptide-treated animals. In saline-treated control animals, no new islet formation was observed.

## CC[C@H](C)[C@H](N)C(=O)NCC(=O)N[C@@H](CC(C)C)C(=O)N[C@@H](Cc1c[nH]cn1)C(=O)N[C@@H](CC(=O)O)C(=O)N1CCC[C@H]1C(=O)N[C@@H](CO)C(=O)N[C@@H](Cc1c[nH]cn1)C(=O)NCC(=O)N[C@H](C(=O)N[C@@H](CC(C)C)C(=O)N1CCC[C@H]1C(=O)N[C@@H](CC(N)=O)C(=O)NCC(=O)N[C@@H](CO)C(=O)O)[C@@H](C)O [INGAP Peptide, NH2-Ile-Gly-Leu-His-Asp-Pro-Ser-His-Gly-Thr-Leu-Pro-Asn-Gly-Ser-COOH] (H-IGLHDPSHGTLPNGS-OH)
[1]; 34-day daily IM dosing
  pancreatic tissue section review: no changes such as edema, inflammatory cell infiltration, necrosis or atrophy
[1]; daily IM 0.5, 1.5, 10 mg/kg/day for 34 days, immunohistochemistry, FIG. 8
  pancreatic β-cell mass: increased
[2]; lyophilized powder, storage up to six-months
  degradation on further storage: does not cause any noticeable degradation
[2]; various storage conditions
  stability of lyophilized powder: stable under various storage conditions
[3]; intramuscular injection
  sugar tolerance: improved sugar tolerance
[3]
  C-peptide level in response to Boost®: an increase in C-peptide level in response to Boost®
  fasting C-peptide level: an increase in fasting C-peptide level
  fasting glucose level: a reduction in fasting glucose level
  insulin dose required: a reduction in insulin does required
[4]
  NOAEL: > 100 mg/kg
[5]; 31 days, FIG. 7
  insulin-positive tissue area: increase in insulin-positive tissue area
[5]; duct-associated and amongst acinar tissue
  number of small islets: increase in the number of small islets
[5]; mouse, in vivo
  extramedullary hematopoiesis in the spleen: seen in one male animal at the high dose
  injection site irritation: observed in males and females with increased frequency at the highest dose
  microscopic pancreas findings: No microscopic evidence of inflammatory cell infiltration, edema, necrosis or atrophy
[6]; 0.1 µg/ml INGAP Peptide, 24 h, BrdU ELISA
  increase in cell count compared with controls: ~1.6 fold
[6]
  cell number, dose dependence: dose dependant increase in cell number
[7]; FIG. 2
  number of islets compared with placebo-treated animals: significant increase
[7]; after 10 consecutive days
  increase in islet number: 30%
[7]; by 30 days
  number of islets in the tissues: doubling
[8]; 250 µg twice daily for 39 days, all four treated animals, FIG. 3
  blood glucose concentrations: restored to normal
[8]; FIG. 5
  transdifferentiation of ductal cells (PDX-1 expression): induced transdifferentiation of ductal cells
[8]; FIGS. 4 and 6
  histopathologic evaluation of islets: both the presence of normal-appearing islets and areas of new islet formation
[8]; any of the treated animals
  hypoglycemia: not observed
[8]; dosing stopped after 39 days, study terminated at 48 days
  durability of the effect after dosing stopped: 48 days
[8]; versus saline-treated STZ-diabetic animals, FIG. 6
  islet inflammation: markedly reduced
